This is an account of results in US20060160095A1, “Survivin” (EiRx Therapeutics Limited, priority 2002, published 2006).

e = 2'-O-(2-methoxyethyl) (MOE); d = 2'-deoxy (DNA)

Data set [1] concerns Primary human neutrophils. Briefly: MTT survival assay of neutrophils cultured with GM-CSF, with or without gliotoxin. Format: cell-based. Conditions: 0.1 μg/ml added with 5 U/ml GM-CSF. Here is the method: Primary human neutrophils are isolated and purified from peripheral blood of normal healthy individuals. Neutrophils are resuspended in serum containing culture medium together with various amounts of GM-CSF at a density of 2×10^6/ml, with 100 μl plated into a 96 well plate and cultured for 18 h at 37° C. After this time 10 μl of MTT (5 mg/ml) is added to the cultures and incubated for a further 4 h at 37° C. before solubilisation of the purple coloured formazan with acidic isopropanol. Optical densities are read at 570 nm using a plate reader.
Primary human neutrophils are isolated and purified from peripheral blood of normal healthy individuals. Neutrophils are resuspended in serum containing culture medium containing 5 U/ml of GM-CSF at a concentration of 2×10^6/ml. […] After the indicated time, 10 μl of MTT (5 mg/ml) are added to the cultures and incubated for a further 4 h at 37° C. before solubilisation of the purple coloured formazan with acidic isopropanol. Optical densities are read at 570 nm using a plate reader.

Data set [2] relates to caspase-3. Briefly: Caspase-3 immunoblotting in neutrophils. In kind it is cell-based, human. Here is the method:
Immunoblotting is carried out as described above using supernatants of cell lysates. Caspase-3 is detected using a polyclonal anti-caspase-3 antibody (1/1000; Becton Dickinson Pharmingen, Heidelberg, Germany))
(§1) Neutrophils (2.5×10^6) are cultured in the presence or absence of GM-CSF (50 ng/ml), G-CSF (25 ng/ml), 2-MOE modified antisense or mismatch survivin oligonucleotides at the indicated concentrations for 10 h, washed with cold PBS and subsequently lysed in 50 μl cell lysis buffer (50 mM HEPES, pH 7.4/0.1% Chaps/5 mM DTT/0.1 mM EDTA) using a Teflon glass homogenizer (VWR International, Ismaning, Germany) on ice for 10 min. After a 10-min centrifugation step at 10,000×g at 4° C., an aliquot of the supernatant is saved for caspase-3 immunoblotting and caspase 3-like activity is measured in 10 μl supernatants as enzymatic-conversion of the colorimetric substrate Ac-DEVD-pNA at 405 nm according to the manufacturer's instructions (QuantiZyme caspase 3 cellular activity assay kit, Biomol, Plymouth Meeting, Pa., USA).
On the technique in general: A western blot detects proteins with antibodies after separation by electrophoresis.

For the next data set, the system named is Neutrophils. In words: Neutrophil apoptosis by oligonucleosomal DNA fragments after 2-MOE oligonucleotides. Format: cell-based, human. Particulars: for GM-CSF- and G-CSF-mediated survival of neutrophils: oligonucleotide plus GM-CSF or G-CSF. The procedure:
Neutrophil apoptosis is assessed by oligonucleosomal DNA fragmentation (Dibbert et al.(1999) Proc. Natl. Acad. Sci. USA 96, 13330-13335; Hebestreit et al. (1998), J. Exp. Med. 187, 415-425) according to Nicoletti et al. ((1991) J. Immunol. Meth. 139, 271-279). Briefly, cells are resuspended in hypotonic fluorochrome solution containing 50 μg/ml propidium iodide (Sigma Buchs, Switzerland), 0.1% sodium citrate (Sigma) and 0.1% (vol/vol) Triton-X 100 (Sigma), incubated at 4° C. for 10 h, and analyzed by flow cytometry (FACScan, Becton Dickinson, Heidelberg, Germany).
(§2) The 20-mer first generation antisense oligonucleotide 4003 targeting the survivin mRNA has been described above. The second generation 2′-O-methoxy-ethoxy (2′-MOE) gapmer version of 4003 (as) and its 3-base mismatch sequence control (ms) are synthesized using an Applied Biosystems 394B automated DNA synthesizer as described (De Mesaeker et al. (1995) Acc. Chem. Res. 28, 366-374). Sequences are as follows: antisense survivin, cscscsasgsCsCsTsTsCsCsAsGsCsTscscststsg; mismatch survivin, cscstsasgsCsCsTsTsCsCsAsGsGsTscscstsasg. Small letters refer to 2′-O-(2-methoxy)-ethyl-modified nucleotides, capital letters to DNA, and “s” refers to phosphorothioate linkages. Cells isolated and cultured as described above are treated with survivin antisense oligonucleotides (as) or survivin mismatch control oligonucleotides (ms) at the indicated concentrations. In the experiments in which GM-CSF (50 ng/ml; kind gift of T. Hartung, University of Konstanz, Konstanz, Germany) or G-CSF (25 ng/ml; PeproTech, BioConcept, Allschwil, Switzerland) are added, the oligonucleotides are given 2 h before addition of cytokines.
Values are means ±S.E.M. of four independent experiments. *, p<0.05; **, p<0.01; ***, p<0.001.

The test system of the next data set is Survivin mRNA. Briefly: Real-time PCR quantification of survivin mRNA in neutrophils. Format: cell-based, human. Conditions: for survivin mRNA expression in the absence of survival cytokines: 4-h transfection period, no cytokine. Here is the method: (§3) Neutrophils are cultured at 1×10^6 per ml in complete culture medium. GM-CSF (50 ng/ml; kind gift of T. Hartung, University of Konstanz, Konstanz, Germany) or G-CSF (25 ng/ml; PeproTech, BioConcept, Allschwil, Switzerland) are added. The duration of GM-CSF or G-CSF stimulation is indicated in each experiment.
Neutrophils (1×10^7) are washed with PBS and the RNA is isolated according to the RNeasy protocol (Qiagen AG, Basel, Switzerland), which includes DNase digestion. RNA is reverse transcribed with the first strand cDNA synthesis kit (Amersham Pharmacia Biotech) by using random hexanucleotides according to the manufacturer's instructions. Real-time monitoring of PCR amplification of survivin cDNA is performed with a 1/100 dilution of neutrophil cDNA as previously described (Olie et al. (2000) Cancer Research 60, 2805-2809). Relative quantification of survivin expression is performed as described (Olie et al. (2000) Cancer Research 60, 2805-2809) utilizing rRNA as an internal standard.
as §2
A general note: Quantitative PCR measures a nucleic acid by following its amplification.

Another data set deals with survivin. In words: Immunoblotting of survivin protein in neutrophils. Format: cell-based, human. Here is the method:
as §3
Neutrophils (5×10^6) are washed with PBS, lysed with RIPA-buffer (0.5% sodium deoxycholate, 1% Nonidet P-40, 0.1% SDS in PBS) supplemented with a protease inhibitor-cocktail (Sigma) with frequent vortexing on ice for 40 min, including two freeze/thaw cycles using a methanol/dry ice bath. After a 10-min centrifugation to remove insoluble particles, equal amounts of the cell lysates are loaded on NuPage-Gels (Invitrogen Corp., Groningen, Netherlands). Separated proteins are electrotransferred onto polyvinylidene difluoride (PVDF) membranes (Immobilion-P, Millipore, Bedford, Mass.). The filters are incubated overnight with a polyclonal anti-survivin antibody (1/1000; R&D Systems, Abingdon, UK) at 4° C. in TBS/0.1% Tween-20/3% non-fat dry milk. Purified full-length recombinant human survivin (2 μl) is provided by R&D Systems as positive control for anti-survivin immunoblotting. For loading controls, stripped filters are incubated with a monoclonal anti-β-actin antibody (1/10,000; Sigma). Filters are washed in TBS/0.1% Tween-20 for 30 min and incubated with the appropriate HRP-conjugated secondary antibody (Amersham Pharmacia Biotech, Dübendorf, Switzerland) in TBS/0.1% Tween-20/5% non-fat dry milk for 1 h. Filters are developed by an ECL-technique (ECL-Kit, Amersham Pharmacia Biotech) according to the manufacturer's instructions.
as §2

Data set [3] concerns caspase-3. Briefly: Enzymatic caspase assay (Ac-DEVD-pNA) in neutrophil lysates. In kind it is cell-based, human. The procedure: as §1

For `CS[C@]1(CO)C(=O)N2[C@H]3C(=CC=C[C@@H]3O)C[C@@]2(SC)C(=O)N1C` [methylgliotoxin, bis-Dethio-bis (Methylthio) Methyl Gliotoxin], the “block of the GM-CSF inhibition of neutrophil apoptosis (MTT)” value in data set [1] is reported as “blocking effect is not seen”.
As for “cscscsasgsCsCsTsTsCsCsAsGsCsTscscststsg (CCCAGCCTTCCAGCTCCTTG; sugars from the 5' end e5 d10 e5, all phosphorothioate, methylation of C not given here) [survivin-antisense, second generation 2′-O-methoxy-ethoxy (2′-MOE) gapmer version of 4003]”, the “optimal concentration to block inhibitory effects on caspase-3 processing” value with caspase-3 [2] (G-CSF) turned out to be 5 µM; in the data set with caspase-3 [2] (GM-CSF), 2.5 µM. The “caspase-3 processing in the presence of GM-CSF or G-CSF” value in the data set on caspase-3 [2] (dose-dependent, 10 h) is “increase caspase-3 processing”. For the same molecule, the “spontaneous apoptosis of neutrophils” value in the data set with Neutrophils (10-h transfection period, no cytokine) was “increase spontaneous apoptosis”. The “optimal concentration to block cytokine-mediated antiapoptosis” value with Neutrophils (G-CSF) is 5 µM; in the data set on Neutrophils (GM-CSF), 2.5 µM. The “GM-CSF- and G-CSF-mediated survival of neutrophils” value with Neutrophils was “blocked GM-CSF- and G-CSF-mediated survival in a dose-dependent manner”. Further, the “survivin mRNA expression in the absence of survival cytokines” value in the data set on Survivin mRNA was “only little effects”. Moreover, in the data set with Survivin mRNA (G-CSF stimulation), the “required concentration to significantly decrease survivin mRNA levels” value came to 2.5 µM. In addition, the “concentration sufficient to significantly decrease survivin mRNA levels” value in the data set with Survivin mRNA (GM-CSF stimulation) was 1.0 µM. The “increases in survivin mRNA expression upon GM-CSF and G-CSF stimulation” value in the data set on Survivin mRNA (oligonucleotides given 2 h before cytokines, dose-dependent) was “prevents increases in survivin mRNA expression”. Further, the “protein expression of survivin in normal neutrophils” value in the data set on survivin (15-h transfection period, no cytokine) is recorded as “almost not affected”. Moreover, the “optimal concentration to block increase in survivin protein expression” value in the data set with survivin (G-CSF stimulation) amounted to 5 µM; in the data set with survivin (GM-CSF stimulation) it was 2.5 µM. For the same molecule, the “increases in survivin expression (protein) upon GM-CSF and G-CSF stimulation” value in the data set with survivin (dose-dependent) is “prevents increases in survivin expression”. The “optimal concentration at which inhibitory effect on caspase-3 activity is completely blocked” value with caspase-3 [3] (G-CSF) was determined as 5 µM; in the data set on caspase-3 [3] (GM-CSF), 2.5 µM. For the same molecule, in the data set on caspase-3 [3] (dose-dependent, 10 h), the “caspase-3-like enzymatic activity in the presence of GM-CSF or G-CSF” value is “increase caspase-3-like enzymatic activity”.
For “cscstsasgsCsCsTsTsCsCsAsGsGsTscscstsasg (CCTAGCCTTCCAGGTCCTAG; sugars from the 5' end e5 d10 e5, all phosphorothioate, methylation of C not given here) [mismatch control oligonucleotides, reference compound]”, the “GM-CSF- and G-CSF-mediated survival of neutrophils” value with Neutrophils is recorded as “unspecific effect”. Also, in the data set on Survivin mRNA, the “survivin mRNA expression in the absence of survival cytokines” value is recorded as “only little effects”.

B1: G-CSF: inflammatory cytokine, neutrophil hematopoietin (PeproTech) (protein, UniProt P09919 31-207, looked up)
Granulocyte …: TPLGPASSLPQSFLLKCLEQVRKIQGDGAALQEKLVSECATYKLCHPEELVLLGHSLGIPWAPLSSCPSQALQLAGCLSQLHSGLFLYQGLLQALEGISPELGPTLDTLQLDVADFATTIWQQMEELGMAPALQPTQGAMPAFASAFQRRAGGVLVASHLQSFLEVSYRVLRHLAQP
Take B1: the “caspase-3 proform and 17-kDa fragment levels with cytokine” value in the data set with caspase-3 [2] (neutrophils cultured with GM-CSF or G-CSF for 10 h) is reported as “maintain greater amounts of the caspase-3 proform”. Further, the “DNA-fragmentation of neutrophils with cytokine” value in the data set with Neutrophils (cytokine alone) is reported as “prevent DNA-fragmentation”. Besides, in the data set with Survivin mRNA (cytokine added in vitro, A549 standard = 100%), the “survivin mRNA in normal control neutrophils after cytokine addition” value is on record as “increase in survivin mRNA”. The “Levels of survivin (immunoblot) in normal control neutrophils” value with survivin (cultured for 12 h in the presence of cytokine) is “increased”.
